Legend:
Assay in all cases: Postemergent herbicidal activity, greenhouse, foliar-applied
Type in all cases: in vivo
Conditions in all cases: foliar postemergence
[1] = system: GLXMA Glycine max (volunteer soybean)
Protocol: (§1) Evaluation of Postemergent Herbicidal Activity. Seeds or nutlets of the desired test plant species were planted in Sun Gro Metro-Mix® 360 planting mixture, which typically has a pH of 6.0 to 6.8 and an organic matter content of about 30 percent, in plastic pots with a surface area of 64 square centimeters (cm^2). […] The plants were grown for 7-21 days (d) in a greenhouse with an approximate 15 hour (h) photoperiod which was maintained at about 23-29° C. during the day and 22-28° C. during the night. Nutrients and water were added on a regular basis and supplemental lighting was provided with overhead metal halide 1000-Watt lamps as necessary. The plants were employed for testing when they reached the first or second true leaf stage.
(§2) A weighed amount, determined by the highest rate to be tested, of each test compound was placed in a 25 milliliter (mL) glass vial and was dissolved in 4 mL of a 97:3 volume per volume (v/v) mixture of acetone and dimethyl sulfoxide (DMSO) to obtain concentrated stock solutions. […] The concentrated stock solutions obtained were diluted with 20 mL of an aqueous mixture containing acetone, water, isopropyl alcohol, DMSO, Atplus 411F crop oil concentrate, and Triton® X-155 surfactant in a 48.5:39:10:1.5:1.0:0.02 v/v ratio to obtain spray solutions containing the highest application rates. Additional application rates were obtained by serial dilution of 12 mL of the high rate solution into a solution containing 2 mL of a 97:3 v/v mixture of acetone and DMSO and 10 mL of an aqueous mixture containing acetone, water, isopropyl alcohol, DMSO, Atplus 411F crop oil concentrate, and Triton X-155 surfactant in a 48.5:39:10:1.5:1.0:0.02 v/v ratio to obtain 1/2×, 1/4×, 1/8×and 1/16× rates of the high rate. Compound requirements are based upon a 12 mL application volume at a rate of 187 liters per hectare (L/ha). Formulated compounds were applied to the plant material with an overhead Mandel track sprayer equipped with 8002E nozzles calibrated to deliver 187 L/ha over an application area of 0.503 square meters (m^2) at a spray height of 18 inches ([…]) above the average plant canopy height. Control plants were sprayed in the same manner with the solvent blank.
(§3) Treatments consisted of the methyl ester of 4-amino-3-chloro-6-(4-chloro-2-fluoro-3-methoxyphenyl)pyridine-2-carboxylic acid (Cmpd 1) as technical grade material and picloram (Tordon® 22K) alone and in combination. The form of compound of formula (I) and picloram-potassium salt were applied on an acid equivalent basis.
(§4) The treated plants and control plants were placed in a greenhouse as described above and watered by subirrigation to prevent wash-off of the test compounds. After 14 d, the condition of the test plants as compared with that of the untreated plants was determined visually and scored on a scale of 0 to 100 percent where 0 corresponds to no injury and 100 corresponds to complete kill.
(§5) The values reported are % control visually rated. Colby's equation was used to determine the herbicidal effects expected from the mixtures (Colby, S.R. Calculation of the synergistic and antagonistic response of herbicide combinations. Weeds 1967, 15, 20-22.).
(§6) More specifically, the following equation was used to calculate the expected activity of mixtures containing two active ingredients, A and B: Expected=A+B−(A×B/100) • A=observed efficacy of active ingredient A at the same concentration as used in the mixture; • B=observed efficacy of active ingredient B at the same concentration as used in the mixture.

[2] = system: CIRAR Cirsium arvense (L.) Scop. (Canada thistle)
Protocol: as §1, §2, §3, §4, §5, §6

[3] = system: AMARE Amaranthus retroflexus L. (redroot pigweed)
Protocol: as §1, §2, §3, §4, §5, §6

[4] = system: BRSNW Brassica napus (winter oilseed rape)
Protocol: as §1, §2, §3, §4, §5, §6

[5] = system: SETFA Setaria faberi Herrm. (giant foxtail)
Protocol: as §1, §2, §3, §4, §5, §6

[6] = system: EPHHL Euphorbia heterophylla L. (wild poinsettia)
Protocol: as §1, §2, §3, §4, §5, §6

[7] = system: ABUTH Abutilon theophrasti Medik. (velvetleaf)
Protocol: as §1, §2, §3, §4, §5, §6

[8] = system: VIOTR Viola tricolor L. (wild violet)
Protocol: as §1, §2, §3, §4, §5, §6

[9] = system: CYPES Cyperus esculentus L. (yellow nutsedge)
Protocol: as §1, §2, §3, §4, §5, §6

[10] = system: STEME Stellaria media (L.) Vill. (common chickweed)
Protocol: as §1, §2, §3, §4, §5, §6

Nc1c(Cl)c(Cl)nc(C(=O)O)c1Cl [Picloram, 4-amino-3,5,6-trichloro-2-pyridinecarboxylic acid]
Visual Growth reduction (%) 14 Days After Application GLXMA obs ([1]; Picloram 12 g ae/ha alone): 73% | Visual Growth reduction (%) 14 Days After Application GLXMA obs ([1]; Picloram 24 g ae/ha alone): 82% | Visual Growth reduction (%) 14 Days After Application CIRAR obs ([2]; Picloram 12 g ae/ha alone): 65% | Visual Growth reduction (%) 14 Days After Application CIRAR obs ([2]; Picloram 24 g ae/ha alone): 82% | Visual Growth reduction (%) 14 Days After Application AMARE obs ([3]; Picloram 12 g ae/ha alone): 63% | Visual Growth reduction (%) 14 Days After Application AMARE obs ([3]; Picloram 24 g ae/ha alone): 63% | Visual Growth reduction (%) 14 Days After Application BRSNW obs ([4]; Picloram 12 g ae/ha alone): 13% | Visual Growth reduction (%) 14 Days After Application BRSNW obs ([4]; Picloram 24 g ae/ha alone): 20% | Visual Growth reduction (%) 14 Days After Application SETFA obs ([5]; Picloram 12 g ae/ha alone): 0% | Visual Growth reduction (%) 14 Days After Application SETFA obs ([5]; Picloram 24 g ae/ha alone): 0% | Visual Growth reduction (%) 14 Days After Application EPHHL obs ([6]; Picloram 12 g ae/ha alone): 62% | Visual Growth reduction (%) 14 Days After Application EPHHL obs ([6]; Picloram 24 g ae/ha alone): 65% | Visual Growth reduction (%) 14 Days After Application ABUTH obs ([7]; Picloram 12 g ae/ha alone): 25% | Visual Growth reduction (%) 14 Days After Application ABUTH obs ([7]; Picloram 24 g ae/ha alone): 15% | Visual Growth reduction (%) 14 Days After Application VIOTR obs ([8]; Picloram 12 g ae/ha alone): 0% | Visual Growth reduction (%) 14 Days After Application VIOTR obs ([8]; Picloram 24 g ae/ha alone): 3% | Visual Growth reduction (%) 14 Days After Application CYPES obs ([9]; Picloram 12 g ae/ha alone): 0% | Visual Growth reduction (%) 14 Days After Application CYPES obs ([9]; Picloram 24 g ae/ha alone): 0% | Visual Growth reduction (%) 14 Days After Application STEME obs ([10]; Picloram 12 g ae/ha alone): 27% | Visual Growth reduction (%) 14 Days After Application STEME obs ([10]; Picloram 24 g ae/ha alone): 17%

COC(=O)c1nc(-c2ccc(Cl)c(OC)c2F)cc(N)c1Cl [Cmpd I, methyl ester of 4-amino-3-chloro-6-(4-chloro-2-fluoro-3-methoxyphenyl)pyridine-2-carboxylic acid]
Visual Growth reduction (%) 14 Days After Application GLXMA obs ([1]; Cmpd I 2.5 g ae/ha alone): 80% | Visual Growth reduction (%) 14 Days After Application GLXMA obs ([1]; Cmpd I 5 g ae/ha alone): 87% | Visual Growth reduction (%) 14 Days After Application GLXMA obs ([1]; Cmpd I 10 g ae/ha alone): 100% | Visual Growth reduction (%) 14 Days After Application CIRAR obs ([2]; Cmpd I 2.5 g ae/ha alone): 47% | Visual Growth reduction (%) 14 Days After Application CIRAR obs ([2]; Cmpd I 5 g ae/ha alone): 53% | Visual Growth reduction (%) 14 Days After Application CIRAR obs ([2]; Cmpd I 10 g ae/ha alone): 65% | Visual Growth reduction (%) 14 Days After Application AMARE obs ([3]; Cmpd I 2.5 g ae/ha alone): 50% | Visual Growth reduction (%) 14 Days After Application AMARE obs ([3]; Cmpd I 5 g ae/ha alone): 58% | Visual Growth reduction (%) 14 Days After Application AMARE obs ([3]; Cmpd I 10 g ae/ha alone): 77% | Visual Growth reduction (%) 14 Days After Application BRSNW obs ([4]; Cmpd I 2.5 g ae/ha alone): 0% | Visual Growth reduction (%) 14 Days After Application BRSNW obs ([4]; Cmpd I 5 g ae/ha alone): 0% | Visual Growth reduction (%) 14 Days After Application BRSNW obs ([4]; Cmpd I 10 g ae/ha alone): 10% | Visual Growth reduction (%) 14 Days After Application SETFA obs ([5]; Cmpd I 2.5 g ae/ha alone): 0% | Visual Growth reduction (%) 14 Days After Application SETFA obs ([5]; Cmpd I 5 g ae/ha alone): 5% | Visual Growth reduction (%) 14 Days After Application SETFA obs ([5]; Cmpd I 10 g ae/ha alone): 35% | Visual Growth reduction (%) 14 Days After Application EPHHL obs ([6]; Cmpd I 2.5 g ae/ha alone): 85% | Visual Growth reduction (%) 14 Days After Application EPHHL obs ([6]; Cmpd I 5 g ae/ha alone): 93% | Visual Growth reduction (%) 14 Days After Application EPHHL obs ([6]; Cmpd I 10 g ae/ha alone): 100% | Visual Growth reduction (%) 14 Days After Application ABUTH obs ([7]; Cmpd I 2.5 g ae/ha alone): 87% | Visual Growth reduction (%) 14 Days After Application ABUTH obs ([7]; Cmpd I 5 g ae/ha alone): 85% | Visual Growth reduction (%) 14 Days After Application ABUTH obs ([7]; Cmpd I 10 g ae/ha alone): 90% | Visual Growth reduction (%) 14 Days After Application VIOTR obs ([8]; Cmpd I 2.5 g ae/ha alone): 30% | Visual Growth reduction (%) 14 Days After Application VIOTR obs ([8]; Cmpd I 5 g ae/ha alone): 43% | Visual Growth reduction (%) 14 Days After Application VIOTR obs ([8]; Cmpd I 10 g ae/ha alone): 62% | Visual Growth reduction (%) 14 Days After Application CYPES obs ([9]; Cmpd I 2.5 g ae/ha alone): 20% | Visual Growth reduction (%) 14 Days After Application CYPES obs ([9]; Cmpd I 5 g ae/ha alone): 72% | Visual Growth reduction (%) 14 Days After Application CYPES obs ([9]; Cmpd I 10 g ae/ha alone): 96% | Visual Growth reduction (%) 14 Days After Application STEME obs ([10]; Cmpd I 2.5 g ae/ha alone): 50% | Visual Growth reduction (%) 14 Days After Application STEME obs ([10]; Cmpd I 5 g ae/ha alone): 57% | Visual Growth reduction (%) 14 Days After Application STEME obs ([10]; Cmpd I 10 g ae/ha alone): 72%

From patent US9894902B2, “Herbicidal compositions comprising 4-amino-3-chloro-6-(4-chloro-2-fluoro-3-methoxyphenyl)pyridine-2-carboxylic acid or a derivative thereof and picloram or a derivative thereof” (Dow AgroSciences LLC, priority 2013, dated 2018)
